How the values were obtained:
Type in all cases: cell-based
Settings in all cases: 24 h or 48 h after addition, unit inferred
A549 = experiment: In vitro inhibition test for cancer cell proliferation (MTT), A549
HeLa = experiment: In vitro inhibition test for cancer cell proliferation (MTT), HeLa
MCF-7 = experiment: In vitro inhibition test for cancer cell proliferation (MTT), MCF-7
L929 = experiment: In vitro cell proliferation inhibition test (MTT), L929

Row | SMILES | IC50 (A549) [µM] | IC50 (HeLa) [µM] | IC50 (MCF-7) [µM] | IC50 (L929) [µM]
1 | C[n+]1cn(Cc2cccc(F)c2)c2c1/C(=N/O)c1ccccc1C2=O [Compound 113, (E)-1-(3-fluorobenzyl)-4-(hydroxylimino)-3-methyl-9-oxo-4,9-dihydro-1H-naphthol[2,3-d]imidazole-3-iodide] | 0.57 | 7.1 | 10 | 73.4
2 | C[n+]1cn(-c2ccc(F)c(Cl)c2)c2c1/C(=N/O)c1ccccc1C2=O [Compound 116, (E)-1-(3-chloro-4-fluorophenyl)-4-(hydroxylimino)-3-methyl-9-oxo-4,9-dihydro-1H-naphthol[2,3-d]imidazole-3-iodide] | 2.3 | > 100 | > 100 | > 100
3 | Cn1c[n+](C)c2c1C(=O)c1cc3ccccc3cc1C2=NOCc1ccccc1 [Compound 149, (E) and (Z)-4-((benzyloxy)imino)-1,3-dimethyl-11-oxo-4, 11-dihydro-1H-anthracene[2,3-d]imidazole-3-iodide] | 0.33 | 67.4 | 75.3 | > 100
4 | CCCCn1c2c([n+](C)c1-c1cc(OC)c(OC)c(OC)c1)C(=NOCc1ccccc1)c1ccccc1C2=O [Compound 148, (E) and (Z)-4-((benzyloxy)imino)-1-butyl-3-methyl-9-oxo-2-(3,4,5-trimethoxyphenyl)-4,9-dihydro-1H-naphthol[2,3-d]imidazole-3-iodide] | 0.09 | 23.6 | 34.6 | 44.1
5 | CCCCn1c[n+](C)c2c1C(=O)c1ccccc1C2=NOCC [Compound 120, (E) and (Z)-1-butyl-4-(ethoxylimino)-3-methyl-9-oxo-4,9-dihydro-1H-naphthol[2,3-d]imidazole-3-iodide] | 0.69 | 26 | 13 | > 100
6 | Cn1c[n+](C)c2c1C(=O)c1ccccc1/C2=N\OCC1OCCO1 [Compound 143, (E)-4-(((1,3-dioxoheterocycle-2-yl)methoxy)imino)-1,3-dimethyl-9-oxo-4,9-dihydro-1H-naphthol[2,3-d]imidazole-3-iodide] | 0.03 | 25.8 | 34.9 | 34.8
7 | Cn1c[n+](C)c2c1C(=O)c1ccccc1/C2=N\O [Compound 91, (E)-1-methyl-4-(hydroxylimino)-3-methyl-9-oxo-4,9-dihydro-1H-naphthol[2,3-d]imidazole-3-iodide] | 0.53 | 0.67 | 0.84 | 4.7
8 | COCCO/N=C1\c2ccccc2C(=O)c2c1[n+](C)cn2C [Compound 144, (E)-4-((2-methoxyethoxy)imino)-1,3-dimethyl-9-oxo-4,9-dihydro-1H-naphthol[2,3-d]imidazole-3-iodide] | 0.06 | 23.3 | 33 | 46.6
9 | Cn1c[n+](C)c2c1C(=O)c1ccccc1C2=NOCc1ccc(F)cc1 [Compound 136, (E) and (Z)-4-(((4-fluorobenzyl)oxy)imino)-1,3-dimethyl-9-oxo-4,9-dihydro-1H-naphthol[2,3-d]imidazole-3-iodide] | 0.06 | 23.9 | 29.8 | 4.4
10 | C[n+]1cn(-c2ccccc2)c2c1/C(=N/O)c1ccccc1C2=O [Compound 104, (E)-4-(hydroxylimino)-3-methyl-9-oxo-1-phenyl-4,9-dihydro-1H-naphthol[2,3-d]imidazole-3-iodide] | 12.2 | 12.5 | 1.43 | > 100
11 | Cn1c[n+](C)c2c1C(=O)c1ccccc1C2=NOCc1ccc(Cl)cc1 [Compound 134, (E) and (Z)-4-(((4-chlorobenzyl)oxy)imino)-1,3-dimethyl-9-oxo-4,9-dihydro-1H-naphthol[2,3-d]imidazole-3-iodide] | 0.07 | 17.5 | 25.6 | 4.9
12 | Cn1c[n+](C)c2c1C(=O)c1ccccc1C2=NOc1ccccc1 [Compound 142, (E) and (Z)-4-((phenoxy)imino)-1,3-dimethyl-9-oxo-4,9-dihydro-1H-naphthol[2,3-d]imidazole-3-iodide] | 0.06 | 34 | 43.5 | 61.3
13 | COc1ccc(-n2c[n+](C)c3c2C(=O)c2ccccc2/C3=N\O)cc1 [Compound 114, (E)-4-(hydroxylimino)-1-(4-methoxyphenyl)-3-methyl-9-oxo-4,9-dihydro-1H-naphthol[2,3-d]imidazole-3-iodide] | 2.42 | 33.8 | 33 | > 100
14 | CC(C)CON=C1c2ccccc2C(=O)c2c1[n+](C)cn2C [Compound 129, (E) and (Z)-4-(isobutoxyimino)-1,3-dimethyl-9-oxo-4,9-dihydro-1H-naphthol[2,3-d]imidazole-3-iodide] | 0.07 | 8.7 | 12.1 | 26.4
15 | Cn1c[n+](C)c2c1C(=O)c1ccccc1C2=NOCc1ccc(C(F)(F)F)cc1 [Compound 135, (E) and (Z)-1,3-dimethyl-9-oxo-4-(((4-(trifluoromethyl)benzyl)oxy)imino)-4,9-dihydro-1H-naphthol[2,3-d]imidazole-3-iodide] | 0.16 | 45.4 | 34.9 | 4.03
16 | C[n+]1cn(Cc2ccccc2)c2c1/C(=N/O)c1ccccc1C2=O [Compound 102, (E)-1-benzyl-4-(hydroxylimino)-3-methyl-9-oxo-4,9-dihydro-1H-naphthol[2,3-d]imidazole-3-iodide] | 0.63 | 1.05 | 0.89 | 37.4
17 | Cn1c[n+](C)c2c1C(=O)c1ccccc1C2=NOCC1CC1 [Compound 131, (E) and (Z)-4-((cyclopropylmethoxy)imino)-1,3-dimethyl-9-oxo-4,9-dihydro-1H-naphthol[2,3-d]imidazole-3-iodide] | 0.07 | 21 | 9.9 | 24.7
18 | Cn1c[n+](C)c2c1C(=O)c1cc3ccccc3cc1C2=NOCc1ccc([N+](=O)[O-])cc1 [Compound 151, (E) and (Z)-1,3-dimethyl-4-(((4-nitrobenzyl)oxy)imino)-11-oxo-4,11-dihydro-1H-anthracene[2,3-d]imidazole-3-iodide] | 0.12 | 56.8 | 78.8 | 89.6
19 | Cn1c[n+](C)c2c1C(=O)c1ccccc1C2=NOCc1ccccc1 [Compound 139, (E) and (Z)-4-((benzyloxy)imino)-1,3-dimethyl-9-oxo-4,9-dihydro-1H-naphthol[2,3-d]imidazole-3-p-toluenesulfonamide] | 0.005 | 6.8 | 8.6 | 19.9
20 | COCCn1c[n+](C)c2c1C(=O)c1ccccc1/C2=N\O [Compound 100, (E)-4-(hydroxylimino)-1-(2-methoxyethyl)-3-methyl-9-oxo-4,9-dihydro-1H-naphthol[2,3-d]imidazole-3-iodide] | 0.62 | 2.18 | 0.87 | 6.64
21 | Cn1c[n+](C)c2c1C(=O)c1ccccc1C2=NOCc1c(F)c(F)c(F)c(F)c1F [Compound 137, (E) and (Z)-1,3-dimethyl-9-oxo-4-(((perfluorophenyl)methoxy)imino)-4,9-dihydro-1H-naphthol[2,3-d]imidazole-3-iodide] | 0.05 | 15.4 | 24.8 | 9.7
22 | COc1ccc(Cn2c[n+](C)c3c2C(=O)c2ccccc2/C3=N\O)cc1 [Compound 115, (E)-4-(hydroxylimino)-1-(4-methoxybenzyl)-3-methyl-9-oxo-4,9-dihydro-1H-naphthol[2,3-d]imidazole-3-iodide] | 0.13 | 2.5 | 1.64 | 17.6
23 | CC(C)Cn1c[n+](C)c2c1C(=O)c1ccccc1/C2=N\O [Compound 96, (E)-4-(hydroxylimino)-1-isobutyl-3-methyl-9-oxo-4,9-dihydro-1H-naphthol[2,3-d]imidazole-3-iodide] | 2.43 | 9.7 | 1.26 | 57.4
24 | C=CCON=C1c2cc3ccccc3cc2C(=O)c2c1[n+](C)cn2C [Compound 150, (E) and (Z)-4-((allyloxy)imino)-1,3-dimethyl-11-oxo-4,11-dihydro-1H-anthracene[2,3-d]imidazole-3-iodide] | 0.46 | 34.4 | 45.9 | 97.8
25 | C[n+]1cn(C(C)(C)C)c2c1/C(=N/O)c1ccccc1C2=O [Compound 98, (E)-1-(tert-butyl)-4-(hydroxylimino)-3-methyl-9-oxo-4,9-dihydro-1H-naphthol[2,3-d]imidazole-3-iodide] | 0.59 | 2.18 | 1.81 | 38.9
26 | Cn1c[n+](C)c2c1C(=O)c1cccc([N+](=O)[O-])c1/C2=N\O [Compound 118, (E)-4-(hydroxylimino)-1,3-dimethyl-5-nitro-9-oxo-4,9-dihydro-1H-naphthol[2,3-d]imidazole-3-iodide] | 0.54 | 0.78 | 0.89 | 12.9
27 | Cn1c[n+](C)c2c1C(=O)c1ccccc1C2=NOC(C)(C)C [Compound 130, (E) and (Z)-4-(tert-butoxyimino)-1,3-dimethyl-9-oxo-4,9-dihydro-1H-naphthol[2,3-d]imidazole-3-iodide] | 0.6 | 48.4 | 56.2 | > 100
28 | C[n+]1cn(Cc2ccccc2F)c2c1/C(=N/O)c1ccccc1C2=O [Compound 112, (E)-1-(2-fluorobenzyl)-4-(hydroxylimino)-3-methyl-9-oxo-4,9-dihydro-1H-naphthol[2,3-d]imidazole-3-iodide] | 0.57 | 7.7 | 3.7 | 27.3

From US20250163002A1, “FUSED QUINONOXIME IMIDAZOLE, ONIUM DERIVATIVES THEREOF, PREPARATION AND USE THEREOF” (SHANGHAI JIAO TONG UNIVERSITY, priority 2022, published 2025)
